Values quoted from earlier work as cited in patent publication US20020144302A1 (priority 1996, published 2002).

Settings: man; daily dose around 200 mg (Vidal, 1996)

Q: With `CC(C)OC(=O)C(C)(C)Oc1ccc(C(=O)c2ccc(Cl)cc2)cc1` [fenofibrate] as the compound, how does the plasma concentration read?
A: about 15 μg/ml
